{
  "source": "patent US20030220524A1",
  "about": "“Sulfur containing compounds” (priority 2000, published 2003)",
  "format_in_all_cases": "cell-based, human",
  "key": {"G2 leukemic cell line [1]": {"test_system": "G2 leukemic cell line", "experiment": "Fixed propidium iodide staining, flow cytometry", "conditions": "48 h"}, "W1 leukemic cell line [2]": {"test_system": "W1 leukemic cell line", "experiment": "Fixed propidium iodide staining, flow cytometry", "conditions": "48 h"}, "B1 leukemic cell line": {"test_system": "B1 leukemic cell line", "experiment": "Fixed propidium iodide staining, flow cytometry", "conditions": "48 h"}, "NB-4 leukemic cell line": {"test_system": "NB-4 leukemic cell line", "experiment": "MTT assay", "conditions": "48 h, read-out: MTT50"}, "G2 leukemic cell line [3]": {"test_system": "G2 leukemic cell line", "experiment": "MTT assay", "conditions": "Homo sapiens, 48 h, read-out: MTT50"}, "W1 leukemic cell line [4]": {"test_system": "W1 leukemic cell line", "experiment": "MTT assay", "conditions": "48 h, read-out: MTT50"}, "AML-2 leukemic cell line": {"test_system": "AML-2 leukemic cell line", "experiment": "MTT assay", "conditions": "48 h, read-out: MTT50"}},
  "note": "Where two headings read alike, the source gives them in different places.",
  "data": [
    {"smiles": "CSSc1ccc([N+](=O)[O-])cc1", "note": "[M, methyl p-nitrophenyl disulphide]", "values": [
      {"measurement": "% pre-G1 (Fixed PI)", "setting": "G2 leukemic cell line [1]; dose 20 uM", "result": 10, "unit": "%"},
      {"measurement": "% pre-G1 (Fixed PI)", "setting": "G2 leukemic cell line [1]; dose 40 uM", "result": 43, "unit": "%"},
      {"measurement": "% pre-G1 (Fixed PI)", "setting": "W1 leukemic cell line [2]; dose 20 uM", "result": 9, "unit": "%"},
      {"measurement": "% pre-G1 (Fixed PI)", "setting": "W1 leukemic cell line [2]; dose 40 uM", "result": 28, "unit": "%"},
      {"measurement": "% pre-G1 (Fixed PI)", "setting": "B1 leukemic cell line; dose 20 uM", "result": 70, "unit": "%"},
      {"measurement": "% pre-G1 (Fixed PI)", "setting": "B1 leukemic cell line; dose 40 uM", "result": 76, "unit": "%"},
      {"measurement": "IC50", "setting": "NB-4 leukemic cell line; Homo sapiens, NB-4", "result": 21.2, "unit": "µM"},
      {"measurement": "IC50", "setting": "G2 leukemic cell line [3]", "result": 11.3, "unit": "µM"},
      {"measurement": "IC50", "setting": "W1 leukemic cell line [4]; Homo sapiens", "result": 4.8, "unit": "µM"}
    ]},
    {"smiles": "CS(=O)(=O)CSSc1ccccc1", "note": "[E, 5-phenyl-2,4,5-trithiapentane 2,2-dioxide]", "values": [
      {"measurement": "IC50", "setting": "NB-4 leukemic cell line; Homo sapiens, NB-4", "result": 25.4, "unit": "µM"},
      {"measurement": "IC50", "setting": "AML-2 leukemic cell line; Homo sapiens", "result": 15.6, "unit": "µM"},
      {"measurement": "IC50", "setting": "G2 leukemic cell line [3]", "result": 3.6, "unit": "µM"}
    ]},
    {"smiles": "CCC(=O)OCSSc1ccccc1", "note": "[Compound Q, 1-phenyl-1,2-dithiapropyl propionate]", "values": [
      {"measurement": "% G2 increase (Fixed PI)", "setting": "G2 leukemic cell line [1]; dose 20 uM", "result": "−1", "unit": "%"},
      {"measurement": "% pre-G1 (Fixed PI)", "setting": "G2 leukemic cell line [1]; dose 20 uM", "result": 31, "unit": "%"},
      {"measurement": "% G2 increase (Fixed PI)", "setting": "G2 leukemic cell line [1]; dose 40 uM", "result": "−3", "unit": "%"},
      {"measurement": "% pre-G1 (Fixed PI)", "setting": "G2 leukemic cell line [1]; dose 40 uM", "result": 55, "unit": "%"},
      {"measurement": "% G2 increase (Fixed PI)", "setting": "W1 leukemic cell line [2]; dose 20 uM", "result": "+4%"},
      {"measurement": "% pre-G1 (Fixed PI)", "setting": "W1 leukemic cell line [2]; dose 20 uM", "result": 20, "unit": "%"},
      {"measurement": "% G2 increase (Fixed PI)", "setting": "W1 leukemic cell line [2]; dose 40 uM", "result": "+12%"},
      {"measurement": "% pre-G1 (Fixed PI)", "setting": "W1 leukemic cell line [2]; dose 40 uM", "result": 49, "unit": "%"},
      {"measurement": "% G2 increase (Fixed PI)", "setting": "B1 leukemic cell line; dose 20 uM", "result": 0, "unit": "%"},
      {"measurement": "% pre-G1 (Fixed PI)", "setting": "B1 leukemic cell line; dose 20 uM", "result": 5, "unit": "%"},
      {"measurement": "% G2 increase (Fixed PI)", "setting": "B1 leukemic cell line; dose 40 uM", "result": "−3", "unit": "%"},
      {"measurement": "% pre-G1 (Fixed PI)", "setting": "B1 leukemic cell line; dose 40 uM", "result": 20, "unit": "%"},
      {"measurement": "IC50", "setting": "G2 leukemic cell line [3]", "result": 14.7, "unit": "µM"},
      {"measurement": "IC50", "setting": "W1 leukemic cell line [4]; Homo sapiens", "result": 13, "unit": "µM"}
    ]},
    {"smiles": "CSSCC(=O)c1ccccc1", "note": "[Compound P, phenacyl methyl disulphide]", "values": [
      {"measurement": "% pre-G1 (Fixed PI)", "setting": "G2 leukemic cell line [1]; dose 50 uM", "result": 6, "unit": "%"},
      {"measurement": "% pre-G1 (Fixed PI)", "setting": "G2 leukemic cell line [1]; dose 150 uM", "result": 63, "unit": "%"},
      {"measurement": "% pre-G1 (Fixed PI)", "setting": "W1 leukemic cell line [2]; dose 50 uM", "result": 14, "unit": "%"},
      {"measurement": "% pre-G1 (Fixed PI)", "setting": "W1 leukemic cell line [2]; dose 150 uM", "result": 55, "unit": "%"},
      {"measurement": "% pre-G1 (Fixed PI)", "setting": "B1 leukemic cell line; dose 50 uM", "result": 52, "unit": "%"},
      {"measurement": "% pre-G1 (Fixed PI)", "setting": "B1 leukemic cell line; dose 150 uM", "result": 80, "unit": "%"},
      {"measurement": "IC50", "setting": "NB-4 leukemic cell line; Homo sapiens, NB-4", "result": 60.8, "unit": "µM"}
    ]},
    {"smiles": "CSSCS(=O)(=O)c1ccc(C)cc1", "note": "[Compound C, α-p-toluenesulfonyl dimethyl disulphide]", "values": [
      {"measurement": "IC50", "setting": "NB-4 leukemic cell line; NB-4", "result": 11.7, "unit": "µM"},
      {"measurement": "IC50", "setting": "AML-2 leukemic cell line", "result": 13.2, "unit": "µM"},
      {"measurement": "IC50", "setting": "W1 leukemic cell line [4]", "result": 8.7, "unit": "µM"}
    ]},
    {"smiles": "CSCSSC", "note": "[Compound N, 2,3,5-trithiahexane]", "values": [
      {"measurement": "% G2 increase (Fixed PI)", "setting": "G2 leukemic cell line [1]; dose 50 uM", "result": "+8%"},
      {"measurement": "% pre-G1 (Fixed PI)", "setting": "G2 leukemic cell line [1]; dose 50 uM", "result": 16, "unit": "%"},
      {"measurement": "% G2 increase (Fixed PI)", "setting": "G2 leukemic cell line [1]; dose 150 uM", "result": "+8%"},
      {"measurement": "% pre-G1 (Fixed PI)", "setting": "G2 leukemic cell line [1]; dose 150 uM", "result": 29, "unit": "%"},
      {"measurement": "% G2 increase (Fixed PI)", "setting": "W1 leukemic cell line [2]; dose 50 uM", "result": "+10%"},
      {"measurement": "% pre-G1 (Fixed PI)", "setting": "W1 leukemic cell line [2]; dose 50 uM", "result": 22, "unit": "%"},
      {"measurement": "% pre-G1 (Fixed PI)", "setting": "W1 leukemic cell line [2]; dose 150 uM", "result": 33, "unit": "%"},
      {"measurement": "% G2 increase (Fixed PI)", "setting": "B1 leukemic cell line; dose 50 uM", "result": "+2%"},
      {"measurement": "% G2 increase (Fixed PI)", "setting": "B1 leukemic cell line; dose 150 uM", "result": "−1", "unit": "%"},
      {"measurement": "% pre-G1 (Fixed PI)", "setting": "B1 leukemic cell line; dose 150 uM", "result": 35, "unit": "%"},
      {"measurement": "IC50", "setting": "NB-4 leukemic cell line; Homo sapiens", "result": 60.8, "unit": "µM"}
    ]},
    {"smiles": "CSSCCS(C)(=O)=O", "note": "[F, 2,3,6-trithiaheptane 6,6,-dioxide]", "values": [
      {"measurement": "IC50", "setting": "AML-2 leukemic cell line", "result": 37.6, "unit": "µM"}
    ]}
  ]
}
